Measurements as given in ChEMBL document CHEMBL4665648, “Potent and selective inhibitors of receptor-interacting protein kinase 1 that lack an aromatic back pocket group” (Bioorg Med Chem Lett, 2019).
Values after ≈ are worked out from the molar mass of the structure shown.

Experiments:
[1] = biological target: Activated CDC42 kinase 1 (Homo sapiens) (UniProt Q07912); experiment: Inhibition of tracer 236 binding to recombinant human GST-tagged TNK2 (110 to 476 residues) expressed in baculovirus expression system at 10 uM incubated for 60 mins by Lanthascreen assay relative to control
[2] = biological target: Serine/threonine-protein kinase 17A (Homo sapiens) (UniProt Q9UEE5); experiment: Inhibition of tracer 236 binding to recombinant human GST-tagged full length DRAK1 expressed in baculovirus expression system at 10 uM incubated for 60 mins by Lanthascreen assay relative to control
[3] = biological target: Tyrosine-protein kinase TXK (Homo sapiens) (UniProt P42681); experiment: Inhibition of recombinant human N-terminal GST-tagged TXK (260 to 527 residues) expressed in baculovirus expression system using Tyr 06 as substrate at 10 uM incubated for 60 mins by Z'-Lyte assay relative to control
[4] = biological target: Aurora kinase A (Homo sapiens) (UniProt O14965); experiment: Inhibition of recombinant human His-tagged full length Aurora A expressed in baculovirus expression system using Ser/Thr 01 as substrate at 10 uM incubated for 60 mins by Z'-Lyte assay relative to control
[5] = biological target: Fibroblast growth factor receptor 1 (Homo sapiens) (UniProt P11362); experiment: Inhibition of recombinant human His-tagged FGFR1 (308 to 731 residues) expressed in baculovirus expression system using Tyr 01 as substrate at 10 uM incubated for 60 mins by Z'-Lyte assay relative to control
[6] = biological target: Mitogen-activated protein kinase kinase kinase kinase 5 (Homo sapiens) (UniProt Q9Y4K4); experiment: Inhibition of recombinant human GST-tagged full length KHS1 expressed in baculovirus expression system using Ser/Thr 07 as substrate at 10 uM incubated for 60 mins by Z'-lyte assay relative to control
[7] = biological target: Insulin-like growth factor 1 receptor (Homo sapiens) (UniProt P08069); experiment: Inhibition of recombinant human His-tagged IGF1R (960 to 1397 residues) expressed in baculovirus expression system using Tyr 01 as substrate at 10 uM incubated for 60 mins by Z'-Lyte assay relative to control
[8] = biological target: Serine/threonine-protein kinase PLK2 (Homo sapiens) (UniProt Q9NYY3); experiment: Inhibition of recombinant human GST-tagged full length PLK2 expressed in baculovirus expression system using Ser/Thr 16 as substrate at 10 uM incubated for 60 mins by Z'-lyte assay relative to control
[9] = biological target: Calcium/calmodulin-dependent protein kinase kinase 1 (Homo sapiens) (UniProt Q8N5S9); experiment: Inhibition of tracer 236 binding to recombinant human GST-tagged full length CAMKK1 expressed in Escherichia coli expression system at 10 uM incubated for 60 mins by Lanthascreen assay relative to control
[10] = biological target: G protein-coupled receptor kinase 3 (Homo sapiens) (UniProt P35626); experiment: Inhibition of recombinant human GST-tagged full length GRK3 expressed in baculovirus expression system using Ser/Thr 16 as substrate at 10 uM incubated for 60 mins by Z'-Lyte assay relative to control
[11] = biological target: Tyrosine-protein kinase receptor TYRO3 (Homo sapiens) (UniProt Q06418); experiment: Inhibition of recombinant human GST-tagged full length RSE (451 to 890 residues) expressed in baculovirus expression system using Tyr 02 as substrate at 10 uM incubated for 60 mins by Z'-Lyte assay relative to control
[12] = biological target: Protein kinase C epsilon type (Homo sapiens) (UniProt Q02156); experiment: Inhibition of recombinant human GST-tagged full length PKCepsilon expressed in insect expression system using Ser/Thr 07 as substrate at 10 uM incubated for 60 mins by Z'-lyte assay relative to control
[13] = Kinetic solubility of compound at pH 7.4; type: physicochemical; conditions: buffer, read-out: Kinetic_solubility
[14] = biological target: Dual specificity mitogen-activated protein kinase kinase 1 (Homo sapiens) (UniProt Q02750); experiment: Inhibition of recombinant human His-tagged full length MEK1 expressed in baculovirus expression system using Ser/Thr 03 as substrate at 10 uM incubated for 60 mins by Z'-lyte assay relative to control
[15] = biological target: Casein kinase I isoform alpha (Homo sapiens) (UniProt P48729); experiment: Inhibition of recombinant human GST-tagged full length CK1alpha1 expressed in baculovirus expression system using Ser/Thr 11 as substrate at 10 uM incubated for 60 mins by Z'-Lyte assay relative to control
[16] = biological target: Receptor-interacting serine/threonine-protein kinase 2 (Homo sapiens) (UniProt O43353); experiment: Inhibition of tracer 178 binding to recombinant human His-tagged RIPK2 (1 to 299 residues) expressed in insect expression system at 10 uM incubated for 60 mins by Lanthascreen assay relative to control
[17] = biological target: Mitogen-activated protein kinase 13 (Homo sapiens) (UniProt O15264); experiment: Inhibition of recombinant human His-tagged full length p38 delta expressed in baculovirus expression system using Ser/Thr 03 as substrate at 10 uM incubated for 60 mins by Z'-Lyte assay relative to control
[18] = biological target: CDK2/Cyclin A2 (Homo sapiens) (UniProt P24941+P20248); experiment: Inhibition of recombinant human His-tagged full length CDK2/Cyclin A expressed in baculovirus expression system using Ser/Thr 12 as substrate at 10 uM incubated for 60 mins by Z'-Lyte assay relative to control
[19] = biological target: Ribosomal protein S6 kinase alpha-1 (Homo sapiens) (UniProt Q15418); experiment: Inhibition of recombinant human His-tagged full length RSK1 expressed in baculovirus expression system using Ser/Thr 06 as substrate at 10 uM incubated for 60 mins by Z'-Lyte assay relative to control
[20] = biological target: Calcium/calmodulin-dependent protein kinase type II subunit beta (Homo sapiens) (UniProt Q13554); experiment: Inhibition of recombinant human His-tagged full length CAMK2beta expressed in baculovirus expression system using Ser/Thr 04 as substrate at 10 uM incubated for 60 mins by Z'-Lyte assay relative to control
[21] = biological target: MAP/microtubule affinity-regulating kinase 3 (Homo sapiens) (UniProt P27448); experiment: Inhibition of recombinant human GST-tagged full length MARK3 expressed in baculovirus expression system using Ser/Thr 25 as substrate at 10 uM incubated for 60 mins by Z'-lyte assay relative to control
[22] = biological target: Casein kinase I isoform delta (Homo sapiens) (UniProt P48730); experiment: Inhibition of recombinant human GST-tagged full length CK1delta expressed in baculovirus expression system using Ser/Thr 11 as substrate at 10 uM incubated for 60 mins by Z'-Lyte assay relative to control
[23] = biological target: Tyrosine-protein kinase Lck (Homo sapiens) (UniProt P06239); experiment: Inhibition of recombinant human His-tagged full length LCK expressed in baculovirus expression system using Tyr 02 as substrate at 10 uM incubated for 60 mins by Z'-lyte assay relative to control
[24] = biological target: Mitogen-activated protein kinase 14 (Homo sapiens) (UniProt Q16539); experiment: Inhibition of recombinant human GST-tagged full length p38 alpha expressed in Escherichia coli expression system using Ser/Thr 15 as substrate at 10 uM incubated for 60 mins by Z'-Lyte assay relative to control

Chain of Ribosomal protein S6 kinase alpha-1 (Homo sapiens) (Q15418 whole entry): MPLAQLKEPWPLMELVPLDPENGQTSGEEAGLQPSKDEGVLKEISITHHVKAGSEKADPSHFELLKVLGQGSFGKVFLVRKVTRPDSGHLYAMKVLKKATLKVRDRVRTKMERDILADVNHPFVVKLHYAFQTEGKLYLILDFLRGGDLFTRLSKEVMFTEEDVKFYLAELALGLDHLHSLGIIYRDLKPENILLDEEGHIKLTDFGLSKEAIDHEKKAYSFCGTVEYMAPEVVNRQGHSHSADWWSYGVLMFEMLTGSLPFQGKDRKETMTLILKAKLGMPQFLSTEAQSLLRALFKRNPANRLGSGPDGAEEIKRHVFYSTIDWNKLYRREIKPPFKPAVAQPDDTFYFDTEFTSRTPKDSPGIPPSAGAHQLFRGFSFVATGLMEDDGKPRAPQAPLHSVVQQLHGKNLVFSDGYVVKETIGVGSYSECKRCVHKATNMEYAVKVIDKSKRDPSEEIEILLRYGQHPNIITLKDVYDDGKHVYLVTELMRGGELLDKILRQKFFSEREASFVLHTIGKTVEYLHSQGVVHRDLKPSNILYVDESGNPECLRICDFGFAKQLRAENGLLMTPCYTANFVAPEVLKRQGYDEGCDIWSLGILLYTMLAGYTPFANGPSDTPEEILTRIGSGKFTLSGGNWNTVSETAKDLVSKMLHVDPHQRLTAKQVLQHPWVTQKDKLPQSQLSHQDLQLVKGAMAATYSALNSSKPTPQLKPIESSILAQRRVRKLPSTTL
Chain of Fibroblast growth factor receptor 1 (Homo sapiens) (P11362 22-822 limits assumed): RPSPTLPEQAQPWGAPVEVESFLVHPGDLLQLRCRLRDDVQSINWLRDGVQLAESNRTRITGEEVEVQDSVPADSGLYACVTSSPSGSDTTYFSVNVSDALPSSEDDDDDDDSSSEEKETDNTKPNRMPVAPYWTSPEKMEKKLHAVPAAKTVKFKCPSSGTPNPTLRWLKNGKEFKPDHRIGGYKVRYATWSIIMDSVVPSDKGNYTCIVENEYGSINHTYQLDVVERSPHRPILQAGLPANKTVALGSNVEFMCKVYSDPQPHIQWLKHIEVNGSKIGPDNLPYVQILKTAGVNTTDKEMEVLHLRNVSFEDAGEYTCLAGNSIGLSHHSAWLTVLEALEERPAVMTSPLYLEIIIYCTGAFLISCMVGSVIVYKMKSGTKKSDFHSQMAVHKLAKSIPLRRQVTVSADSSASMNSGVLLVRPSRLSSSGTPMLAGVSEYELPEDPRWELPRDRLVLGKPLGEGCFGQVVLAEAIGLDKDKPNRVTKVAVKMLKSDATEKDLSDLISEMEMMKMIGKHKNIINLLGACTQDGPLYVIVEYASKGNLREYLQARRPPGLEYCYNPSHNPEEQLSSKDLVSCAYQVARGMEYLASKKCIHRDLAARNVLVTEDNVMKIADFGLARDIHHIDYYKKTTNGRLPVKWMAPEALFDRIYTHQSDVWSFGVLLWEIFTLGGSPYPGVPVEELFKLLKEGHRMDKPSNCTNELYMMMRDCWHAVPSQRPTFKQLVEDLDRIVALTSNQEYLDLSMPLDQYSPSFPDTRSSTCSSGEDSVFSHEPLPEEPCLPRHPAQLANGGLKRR
Chain of Casein kinase I isoform alpha (Homo sapiens) (P48729 whole entry, looked up, the tested form may be a part, canonical isoform): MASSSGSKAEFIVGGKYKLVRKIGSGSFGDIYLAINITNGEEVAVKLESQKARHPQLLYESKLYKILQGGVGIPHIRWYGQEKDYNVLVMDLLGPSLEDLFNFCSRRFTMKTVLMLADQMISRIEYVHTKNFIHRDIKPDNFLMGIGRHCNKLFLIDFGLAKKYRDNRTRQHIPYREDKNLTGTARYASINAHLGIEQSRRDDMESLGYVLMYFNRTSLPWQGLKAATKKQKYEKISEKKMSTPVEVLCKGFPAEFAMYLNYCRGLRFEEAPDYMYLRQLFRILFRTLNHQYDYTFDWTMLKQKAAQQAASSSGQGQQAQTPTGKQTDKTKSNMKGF
Chain of Calcium/calmodulin-dependent protein kinase type II subunit beta (Homo sapiens) (Q13554 whole entry): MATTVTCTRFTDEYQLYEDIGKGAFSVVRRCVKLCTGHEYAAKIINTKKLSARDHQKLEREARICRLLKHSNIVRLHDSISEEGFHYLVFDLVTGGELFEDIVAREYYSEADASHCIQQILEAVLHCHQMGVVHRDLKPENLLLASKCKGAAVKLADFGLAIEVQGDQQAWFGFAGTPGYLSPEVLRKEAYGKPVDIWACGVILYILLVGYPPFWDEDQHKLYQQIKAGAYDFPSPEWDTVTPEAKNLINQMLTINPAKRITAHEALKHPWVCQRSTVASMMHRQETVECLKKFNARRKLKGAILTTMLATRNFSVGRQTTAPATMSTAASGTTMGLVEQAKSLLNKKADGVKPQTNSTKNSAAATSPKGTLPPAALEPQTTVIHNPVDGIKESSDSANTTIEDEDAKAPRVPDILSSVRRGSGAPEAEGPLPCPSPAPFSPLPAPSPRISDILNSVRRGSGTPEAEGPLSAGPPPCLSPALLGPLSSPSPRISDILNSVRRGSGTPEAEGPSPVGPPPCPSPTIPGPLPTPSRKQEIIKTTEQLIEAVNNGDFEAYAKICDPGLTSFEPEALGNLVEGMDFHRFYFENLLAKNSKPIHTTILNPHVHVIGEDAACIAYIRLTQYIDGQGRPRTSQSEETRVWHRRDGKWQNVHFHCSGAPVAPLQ
Chain of Calcium/calmodulin-dependent protein kinase kinase 1 (Homo sapiens) (Q8N5S9 whole entry, looked up): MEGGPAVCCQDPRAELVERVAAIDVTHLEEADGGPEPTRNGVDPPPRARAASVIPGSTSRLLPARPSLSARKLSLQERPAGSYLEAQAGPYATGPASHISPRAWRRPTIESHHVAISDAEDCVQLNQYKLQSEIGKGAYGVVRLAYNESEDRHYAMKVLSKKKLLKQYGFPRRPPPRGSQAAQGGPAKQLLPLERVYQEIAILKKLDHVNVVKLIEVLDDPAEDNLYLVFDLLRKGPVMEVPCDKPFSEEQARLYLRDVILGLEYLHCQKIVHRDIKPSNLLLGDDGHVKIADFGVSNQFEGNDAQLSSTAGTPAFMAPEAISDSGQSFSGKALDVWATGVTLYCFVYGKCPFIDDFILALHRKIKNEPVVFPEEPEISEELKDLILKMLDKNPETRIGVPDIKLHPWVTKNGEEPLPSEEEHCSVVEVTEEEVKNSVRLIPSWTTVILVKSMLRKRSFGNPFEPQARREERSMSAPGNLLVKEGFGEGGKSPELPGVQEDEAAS
Chain of Dual specificity mitogen-activated protein kinase kinase 1 (Homo sapiens) (Q02750 whole entry, canonical isoform): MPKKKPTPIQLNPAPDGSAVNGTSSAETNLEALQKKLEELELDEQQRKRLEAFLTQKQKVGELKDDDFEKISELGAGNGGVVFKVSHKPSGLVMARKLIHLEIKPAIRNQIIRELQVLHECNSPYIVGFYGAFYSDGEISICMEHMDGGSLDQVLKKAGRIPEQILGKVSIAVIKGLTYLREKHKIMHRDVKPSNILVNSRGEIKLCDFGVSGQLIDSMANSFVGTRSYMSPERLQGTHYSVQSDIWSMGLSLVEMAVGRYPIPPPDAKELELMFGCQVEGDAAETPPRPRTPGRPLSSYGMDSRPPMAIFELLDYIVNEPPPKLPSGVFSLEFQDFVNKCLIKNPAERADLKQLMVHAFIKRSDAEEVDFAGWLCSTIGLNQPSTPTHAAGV
Chain of Tyrosine-protein kinase receptor TYRO3 (Homo sapiens) (Q06418 whole entry, the tested form may be a part): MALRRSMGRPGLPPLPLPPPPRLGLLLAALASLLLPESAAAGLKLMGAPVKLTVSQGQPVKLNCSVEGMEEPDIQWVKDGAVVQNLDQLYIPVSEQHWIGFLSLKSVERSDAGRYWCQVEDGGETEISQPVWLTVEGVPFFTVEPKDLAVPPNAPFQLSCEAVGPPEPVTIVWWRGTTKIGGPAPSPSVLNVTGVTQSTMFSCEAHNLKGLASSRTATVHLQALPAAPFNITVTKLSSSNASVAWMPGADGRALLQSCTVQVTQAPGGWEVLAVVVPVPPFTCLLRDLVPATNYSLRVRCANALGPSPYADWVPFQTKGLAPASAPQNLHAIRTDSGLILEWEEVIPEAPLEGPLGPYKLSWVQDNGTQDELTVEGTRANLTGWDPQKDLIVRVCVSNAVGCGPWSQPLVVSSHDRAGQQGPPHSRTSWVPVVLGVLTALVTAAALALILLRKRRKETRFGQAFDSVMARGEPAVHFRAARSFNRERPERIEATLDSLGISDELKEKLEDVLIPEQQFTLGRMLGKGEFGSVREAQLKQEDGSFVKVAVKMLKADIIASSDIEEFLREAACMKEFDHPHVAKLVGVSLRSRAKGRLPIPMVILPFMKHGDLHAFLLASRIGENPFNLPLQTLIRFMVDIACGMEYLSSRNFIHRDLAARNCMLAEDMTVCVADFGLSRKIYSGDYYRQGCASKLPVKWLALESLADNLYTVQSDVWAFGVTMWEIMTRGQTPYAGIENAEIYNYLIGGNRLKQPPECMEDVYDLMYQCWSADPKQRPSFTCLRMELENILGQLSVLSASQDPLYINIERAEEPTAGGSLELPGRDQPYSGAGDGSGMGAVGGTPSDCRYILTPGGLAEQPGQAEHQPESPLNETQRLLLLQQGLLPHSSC
Chain of Aurora kinase A (Homo sapiens) (O14965 whole entry, the tested form may be a part): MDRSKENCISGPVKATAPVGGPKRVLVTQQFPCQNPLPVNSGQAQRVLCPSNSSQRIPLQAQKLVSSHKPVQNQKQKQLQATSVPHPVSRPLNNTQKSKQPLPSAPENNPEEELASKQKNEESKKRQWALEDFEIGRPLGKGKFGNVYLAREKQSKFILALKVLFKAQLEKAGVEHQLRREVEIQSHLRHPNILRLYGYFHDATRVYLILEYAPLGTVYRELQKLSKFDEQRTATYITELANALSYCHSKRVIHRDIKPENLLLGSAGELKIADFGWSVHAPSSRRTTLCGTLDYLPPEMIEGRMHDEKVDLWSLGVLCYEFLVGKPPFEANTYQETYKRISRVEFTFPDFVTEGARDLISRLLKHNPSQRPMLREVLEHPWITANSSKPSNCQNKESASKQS

SMILES: CN1C(=O)[C@@H](NC(=O)c2n[nH]c3ncc(C(F)(F)C(F)(F)F)cc23)COc2ccccc21
- inhibition [1]: 1.5%
- inhibition [2]: 15.5%
- inhibition [3]: 8.5%
- inhibition [4]: 0%
- inhibition [5]: 0%
- inhibition [6]: -0.5%
- inhibition [7]: -0.5%
- inhibition [8]: -1%
- inhibition [9]: -5%
- inhibition [10]: 2.5%
- inhibition [11]: 1.5%
- inhibition [12]: -6%
- solubility kinetic [13]: 17 µM (≈ 7.74 µg/mL)
- inhibition [14]: -6.5%
- inhibition [15]: 1.5%
- inhibition [16]: -1%
- inhibition [17]: 5.5%
- inhibition [18]: 13%
- inhibition [19]: 8%
- inhibition [20]: -1%
- inhibition [21]: -3.5%
- inhibition [22]: 1%
- inhibition [23]: -0.5%
- inhibition [24]: 0.5%
